Experimental data reported in paper PMC6272905, “In Vitro and In Vivo Characterization of Selected Fluorine-18 Labeled Radioligands for PET Imaging of the Dopamine D3 Receptor” (Molecules, 2016).

Experiments:
D3 receptor [1] = conditions: cited from earlier work
P-gp = biological target: T1, P-gp (Homo sapiens, UniProt P08183); experiment: Bi-directional transport assay in Caco-2 cells; format: cell-based
T1 construct: endogenous in cells; host or cells: Caco-2
Procedure: The procedure of initially adding equal concentrations to both compartments was adapted from the literature. Caco-2 cells were seeded near confluency in thin-cert inserts (translucent, Ø 0.4 µm, 24 well PET membrane, Greiner) and placed in multiwell plates (CELLSTAR 24 Multiwell plates, Greiner). The culture medium basolateral (multiwell) and apical (insert) was renewed every 2–3 days. Approximately 12 days after seeding the Caco-2 cells reached their highest trans-epithelial resistance, which was monitored every four days and on day of the experiment. An immunocytochemistry was also performed with an additional insert (translucent) to confirm stable formation of tight-junctions and cell monolayer. Culture medium was then removed and the cells were washed with PBS. Culture medium supplemented with cyclosporin (10 µM) was added to both compartments and the cells were incubated at 37 °C for 30 min. Afterwards 1 MBq [^18F]2b was added to each compartment. An aliquot was taken from each compartment after 0, 30, 60 and 90 min and analyzed in the gamma-counter. To identify cyclosporine-A induced accumulation the experiment was also performed using culture medium lacking cyclosporine-A. As positive control the experiment was performed with ^99mTc-MIBI (100 kBq/ compartment).

dopamine D3 receptor = experiment: Dynamic small-animal PET recordings; format: in vivo; conditions: rat
Procedure: Small-animal PET imaging studies were conducted with male Sprague Dawleys rats (250–300 g) on a Inveon microPET scanner (Siemens Healthcare, Erlangen, Germany) under isoflurane (3%) anesthesia. After intravenous injection of [^18F]2b (10–15 MBq), dynamic emission recordings consisting of 13 frames of duration increasing from 30 s to 10 min were acquired to a total of 60 min. For displacement studies BP897 (1 mg/kg) was administered 30 min prior to radioligand injection. Dynamic emission images were corrected for attenuation and decay, and reconstructed by the iterative maximum a posteriori estimation, using software installed in the Inveon PET for dead time and random correction. The dynamic PET scan was then evaluated using the software Amide. The regions of interest were evaluated voxel based and the mean activity in %ID/g of each frame calculated.

[2] = set-up: method as in PMID 24339325, PMID 26707848; conditions: over 120 min, previously reported; cited from earlier work
[3] = set-up: method as in PMID 24339325, PMID 26707848; conditions: experimental, pH 7.4, n = 6, previously reported; cited from earlier work
[4] = Binding to proteins in human plasma in vitro; format: in vitro ADME; conditions: human vs rat plasma
Procedure: (§1) The free fraction in vitro was determined by adding the respective radioligand (100 kBq) to plasma or CSF (200 µL) and mixed vigorously. Aliquots of 20–50 µL were transferred to size exclusion chromatography columns (MicroSpin G-50; GE Healthcare GmbH, Solingen, Germany, centrifuged for two min at 2000 rpm, and the radioactivity in the filtrate and in the resin were measured in the gamma-counter. Three independent experiments were performed in triplicates.

[5] = Free fraction in rat plasma; format: in vitro ADME; conditions: rat plasma, Figure 3b
Procedure: as §1
For the ex vivo determination of the radioligands binding to proteins the respective tracer (15 MBq) was administered intravenous to male Sprague Dawley rats (200–250 g) under isoflurane anesthesia. Blood samples were drawn intravenous after 5, 15 and 30 min and centrifuged for 5 min at 2000 rpm in heparin-coated vials. An aliquot of 50 µL was taken from the supernatant and added to an equal volume of water (10% TFA). The protein precipitate was centrifuged off for 5 min at 25,000 rpm and analyzed together with a further 50 µL aliquot of the supernatant in the gamma-counter. Two independent experiments were performed.

D3 receptor [6] = biological target: T2, D3 receptor (Rattus norvegicus, UniProt P19020); experiment: In vitro autoradiography of coronal rat brain sections; format: binding; conditions: displacement with BP897
T2 construct: In vitro autoradiography of coronal rat brain sections after incubation with the respective radioligand; from tissue; host or cells: coronal brain cryosections (20 µm) of male Sprague Dawley rats
T2 sequence (P19020 whole entry): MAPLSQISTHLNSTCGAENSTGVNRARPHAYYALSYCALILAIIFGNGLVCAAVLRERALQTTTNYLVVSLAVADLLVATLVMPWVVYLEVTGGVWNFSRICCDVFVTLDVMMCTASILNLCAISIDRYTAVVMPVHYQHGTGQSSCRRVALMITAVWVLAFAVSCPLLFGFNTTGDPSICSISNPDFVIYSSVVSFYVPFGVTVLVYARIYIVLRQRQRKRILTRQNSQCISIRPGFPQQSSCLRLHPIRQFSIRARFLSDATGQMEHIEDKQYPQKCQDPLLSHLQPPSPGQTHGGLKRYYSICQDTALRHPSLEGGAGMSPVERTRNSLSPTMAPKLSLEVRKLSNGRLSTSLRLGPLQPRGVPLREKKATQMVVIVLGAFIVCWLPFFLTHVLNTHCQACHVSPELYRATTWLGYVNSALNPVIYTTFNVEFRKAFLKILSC
Procedure: Male Sprague Dawley rats (200–250 g) were sacrificed by decapitation under deep isoflurane anesthesia and brains were removed and frozen in cooled hexane at −70 °C. Coronal brain sections (20 µm) were cut on a cryostat microtome (HM550, Microm-Thermo Fisher Scientific, Walldorf, Germany) and thaw-mounted on covered glass slides (Histobond®, Marienfeld, Lauda Königshofen, Germany). The thaw mounted sections were stored at −20 °C up to 14 days.
The cryostat sections were pre-incubated for 15 min in incubation buffer (50 mM Tris-HCl, 40 mM NaCl, pH 7.4) at room temperature. The sections were then placed in incubation buffer containing 5 MBq of the respective tracer. For displacement studies BP897 (50 nM or 1 µM) was added. The sections were incubated at room temperature for 45 min and afterwards washed in ice cold incubation buffer for 3 × 5 min. Subsequently, they were dipped in water and after drying placed on a phosphor imaging screen (Fujitsu, Berlin, Germany) over night. The screens were analyzed with a DUERR Medical HD-CR 35 Bio (Raytest, Straubenhardt, Germany) and evaluated using the software AIDA image analyzer (Raytest). For anatomical identification of brain regions, the sections were compared with figures in the rat brain atlas.

[7] = Caco-2, absence of cyclosporin-A, up to 90 min

T1 sequence (P08183 whole entry): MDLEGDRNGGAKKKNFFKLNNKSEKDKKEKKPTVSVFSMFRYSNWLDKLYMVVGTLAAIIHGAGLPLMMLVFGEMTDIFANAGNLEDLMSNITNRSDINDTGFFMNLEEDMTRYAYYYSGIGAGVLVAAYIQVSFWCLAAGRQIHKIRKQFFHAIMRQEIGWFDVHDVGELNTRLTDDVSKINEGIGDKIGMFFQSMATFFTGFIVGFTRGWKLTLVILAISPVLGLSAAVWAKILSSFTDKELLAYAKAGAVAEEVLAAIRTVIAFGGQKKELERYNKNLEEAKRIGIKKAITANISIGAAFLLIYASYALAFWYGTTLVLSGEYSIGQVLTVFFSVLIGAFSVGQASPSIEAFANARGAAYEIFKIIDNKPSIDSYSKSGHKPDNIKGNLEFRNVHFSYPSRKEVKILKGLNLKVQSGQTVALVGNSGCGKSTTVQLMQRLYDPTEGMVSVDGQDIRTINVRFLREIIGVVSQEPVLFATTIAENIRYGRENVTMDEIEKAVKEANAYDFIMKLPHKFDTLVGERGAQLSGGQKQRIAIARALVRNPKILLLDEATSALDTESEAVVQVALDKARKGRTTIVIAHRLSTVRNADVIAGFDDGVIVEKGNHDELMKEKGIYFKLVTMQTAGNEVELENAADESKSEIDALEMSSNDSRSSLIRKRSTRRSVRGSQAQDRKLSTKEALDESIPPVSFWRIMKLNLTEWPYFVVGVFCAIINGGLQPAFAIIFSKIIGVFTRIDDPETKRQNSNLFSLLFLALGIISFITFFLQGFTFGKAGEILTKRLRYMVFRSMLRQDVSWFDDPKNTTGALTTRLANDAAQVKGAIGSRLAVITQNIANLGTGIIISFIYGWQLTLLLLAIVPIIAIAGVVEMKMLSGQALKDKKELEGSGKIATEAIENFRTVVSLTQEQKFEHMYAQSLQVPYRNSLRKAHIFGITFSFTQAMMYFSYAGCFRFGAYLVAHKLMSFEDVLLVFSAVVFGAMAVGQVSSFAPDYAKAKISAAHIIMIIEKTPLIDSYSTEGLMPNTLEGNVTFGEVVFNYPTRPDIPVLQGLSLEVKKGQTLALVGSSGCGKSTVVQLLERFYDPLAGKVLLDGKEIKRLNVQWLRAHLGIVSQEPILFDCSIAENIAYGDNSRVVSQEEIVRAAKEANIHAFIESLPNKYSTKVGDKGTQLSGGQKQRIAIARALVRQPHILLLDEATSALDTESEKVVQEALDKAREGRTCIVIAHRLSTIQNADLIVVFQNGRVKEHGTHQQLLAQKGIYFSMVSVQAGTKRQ

concentration in the apical compartment, % of the initial concentration (P-gp; [7]): 90%
concentration in the basolateral compartment, % of the initial concentration (P-gp; [7]): 100%
concentration in the basolateral compartment (P-gp; Caco-2, presence of cyclosporin-A): stayed nearly constant
concentration in the apical compartment, % of the initial concentration (P-gp; Caco-2, presence of cyclosporin-A (^99mTc-MIBI after 60 and 90 min; [^18F]2b after 30 min)): 80%
P-gp substrate (P-gp; conclusion from inhibition and transport assays): no P-gp substrate
uptake in the third and lateral ventricle (dopamine D3 receptor): approximately 0.25 %ID/g
uptake in the pituitary gland (dopamine D3 receptor; 30 min p.i.): 0.8 %ID/g
uptake in the pituitary gland (dopamine D3 receptor; after approximately 5 min): 0.94 %ID/g
maximum uptake in the cerebral matter (dopamine D3 receptor; at 65 s post intravenous injection): 0.14 %ID/g
uptake in the pituitary gland (dopamine D3 receptor; end of the recording): 0.76 %ID/g
uptake in the fourth ventricle (dopamine D3 receptor; initial uptake, constant over the 60 min of recording): 0.4 %ID/g
uptake in the cerebral matter after wash-out (dopamine D3 receptor; over the 60 min of recording): 0.07 %ID/g
binding to human plasma higher than in rat plasma [4]: 20%–30%
free radioligand in rat plasma [5]: 80%
binding pattern in rat brain sections (D3 receptor [6]): D3 specific binding was visible
Compound: COc1ccccc1N1CCN(CCCCNC(=O)/N=N/c2ccc([18F])cc2)CC1 [[^18F]2b]
Ki (D3 receptor [1]): 3.5 nM
blocking of fourth ventricle uptake with BP897 (dopamine D3 receptor; BP897 1 mg/kg): 50%
decrease of initial and mean pituitary gland uptake by blocking with BP897 (dopamine D3 receptor; BP897 1 mg/kg): 35%
decomposition in human serum [2]: no decomposition was observed
Log D7.4 [3]: 2.10 ± 0.10
